Measurements as given in ChEMBL document CHEMBL4049443, “Discovery of 2-[[2-Ethyl-6-[4-[2-(3-hydroxyazetidin-1-yl)-2-oxoethyl]piperazin-1-yl]-8-methylimidazo[1,2-a]pyridin-3-yl]methylamino]-4-(4-fluorophenyl)thiazole-5-carbonitrile (GLPG1690), a First-in-Class Autotaxin Inhibitor Undergoing Clinical Evaluation for the Treatment of Idiopathic Pulmonary …” (J Med Chem, 2017).

How the values were obtained:
Autotaxin = Autotaxin (Homo sapiens, UniProt Q13822); experiment: Inhibition of human ATX using LPC (16:0) as substrate after 30 mins by horseradish peroxidase/choline oxidase coupled enzyme based spectrophotometric analysis
Cytochrome P450 3A4 = Cytochrome P450 3A4 (Homo sapiens, UniProt P08684); experiment: Time-dependent inhibition of human liver microsomes CYP3A4; assay type: ADME
Chain of Cytochrome P450 3A4 (P08684 whole entry): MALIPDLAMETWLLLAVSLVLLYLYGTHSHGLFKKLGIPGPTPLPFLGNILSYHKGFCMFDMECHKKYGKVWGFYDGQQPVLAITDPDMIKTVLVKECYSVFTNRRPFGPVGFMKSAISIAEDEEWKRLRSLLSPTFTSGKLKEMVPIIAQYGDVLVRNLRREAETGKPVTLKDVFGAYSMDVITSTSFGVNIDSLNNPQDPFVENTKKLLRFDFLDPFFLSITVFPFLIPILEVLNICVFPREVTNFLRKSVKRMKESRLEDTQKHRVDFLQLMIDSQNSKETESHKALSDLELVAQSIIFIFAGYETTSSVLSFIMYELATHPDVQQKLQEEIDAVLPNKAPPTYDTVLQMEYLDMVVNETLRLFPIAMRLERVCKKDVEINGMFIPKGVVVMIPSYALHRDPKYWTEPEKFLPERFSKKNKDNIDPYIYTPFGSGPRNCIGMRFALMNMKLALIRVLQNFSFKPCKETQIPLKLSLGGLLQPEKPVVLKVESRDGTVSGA

IC50 (Autotaxin): 274 nM
TDI (Cytochrome P450 3A4): Active
SMILES: CCc1nc2ccc(N3CCN(CC(=O)N4CC(O)C4)CC3)cn2c1N(C)c1nc(-c2ccc(F)cc2)cs1
